Where two headings read alike, the source gives them in different places.
What was measured:
Format in all cases: biochemical
[1] = target: CSNK1D (Homo sapiens (Human), UniProt P48730); test: CSNK1D Assay (ADP-Glo, 1 μM ATP); conditions: median, read-out: CSNK1D IC50 [mol/l] (median)
In short: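 Enzyme preincubated with compound 15 min at 22° C in 50 mM HEPES pH 7.5 buffer with 10 mM MgCl2, 1 mM DTT; kinase reaction run at 1 μM ATP with biotinylated peptide substrate. ADP formed was detected by ADP-Glo luminescence as the measure of activity.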

[2] = target: wild-type Epidermal Growth Factor Receptor (EGFR) (Homo sapiens (Human), UniProt P00533); test: WT-EGFR Kinase Assay (TR-FRET, 2 mM ATP)
wild-type Epidermal Growth Factor Receptor (EGFR), sequence (P00533 669-1210): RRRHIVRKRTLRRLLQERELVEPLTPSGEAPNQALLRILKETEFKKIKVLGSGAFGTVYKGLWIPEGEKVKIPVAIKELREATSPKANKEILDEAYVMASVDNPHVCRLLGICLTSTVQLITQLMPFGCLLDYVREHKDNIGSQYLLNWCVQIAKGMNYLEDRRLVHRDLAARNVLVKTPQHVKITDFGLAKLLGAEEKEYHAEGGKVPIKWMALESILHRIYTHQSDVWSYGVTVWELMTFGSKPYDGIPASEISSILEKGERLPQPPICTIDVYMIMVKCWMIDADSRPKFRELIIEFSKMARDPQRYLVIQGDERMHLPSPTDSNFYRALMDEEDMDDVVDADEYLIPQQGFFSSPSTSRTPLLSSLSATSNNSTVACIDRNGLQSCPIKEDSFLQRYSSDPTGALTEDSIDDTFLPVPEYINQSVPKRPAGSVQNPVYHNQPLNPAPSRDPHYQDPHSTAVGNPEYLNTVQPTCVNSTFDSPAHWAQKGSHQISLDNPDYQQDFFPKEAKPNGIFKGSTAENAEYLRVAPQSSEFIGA
In short: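 TR-FRET read-out of biotinylated peptide phosphorylation, taken as the 665/622 nm ratio after EDTA stop and 1 h detection at 22° C. Kinase: GST fusion of human EGFR aa R669–A1210, given a 15 min compound pre-binding step; reaction run at 2 mM ATP.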

[3] = target: CSNK1A1 (Homo sapiens (Human), UniProt P48729); test: CSNK1A1 Assay 2 (ADP-Glo, 1 μM ATP); conditions: median, read-out: CSNK1A1 Assay 2 IC50 [mol/l] (median)
CSNK1A1, sequence (P48729 whole entry): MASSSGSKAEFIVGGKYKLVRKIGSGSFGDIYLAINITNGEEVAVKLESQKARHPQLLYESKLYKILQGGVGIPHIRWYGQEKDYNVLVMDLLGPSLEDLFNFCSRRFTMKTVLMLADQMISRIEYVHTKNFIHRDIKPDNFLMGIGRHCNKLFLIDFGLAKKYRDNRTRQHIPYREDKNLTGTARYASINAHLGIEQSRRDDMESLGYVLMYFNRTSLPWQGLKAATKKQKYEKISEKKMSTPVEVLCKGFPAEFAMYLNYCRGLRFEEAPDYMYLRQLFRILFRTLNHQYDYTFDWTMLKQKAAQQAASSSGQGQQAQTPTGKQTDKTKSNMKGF
In short: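 ADP-Glo luminescence, taken as ADP formed, reports activity against biotinylated phospho-peptide substrate biotin-Ahx-KRRRAL-pS-VASLPGL at 1 μM ATP.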

[4] = EGFR Wildtyp 2 mM ATP IC50 [mol/l] (median), median or individual measurements

CSNK1D, sequence (P48730 whole entry): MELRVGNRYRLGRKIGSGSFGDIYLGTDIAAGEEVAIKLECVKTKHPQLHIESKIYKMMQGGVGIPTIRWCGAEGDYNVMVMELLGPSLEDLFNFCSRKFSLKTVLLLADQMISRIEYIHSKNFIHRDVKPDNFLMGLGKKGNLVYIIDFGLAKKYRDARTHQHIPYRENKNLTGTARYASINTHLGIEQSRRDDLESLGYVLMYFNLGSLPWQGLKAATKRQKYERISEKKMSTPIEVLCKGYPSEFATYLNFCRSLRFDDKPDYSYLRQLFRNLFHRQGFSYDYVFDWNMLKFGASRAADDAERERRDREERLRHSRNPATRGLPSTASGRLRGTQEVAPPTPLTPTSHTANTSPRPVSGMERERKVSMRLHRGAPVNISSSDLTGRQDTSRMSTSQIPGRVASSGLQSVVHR

Row | SMILES | IC50 [1] [nM] | IC50 [2, 4] [µM] | IC50 [3] [nM] | IC50 ([2]; read-out: EGFR Wildtyp 2 mM ATP IC50 [mol/l] (median), median or individual measurements, listed as 084) [µM]
1 | CN1C(=O)c2c([nH]c(-c3ccnc(NC(=O)C(CC(F)F)c4ccc(F)cc4)c3)c2-c2ccc(F)cc2)CC12CC2 (racemic) [Example 81, 4,4-difluoro-2-(4-fluorophenyl)-N-{4-[3′-(4-fluorophenyl)-5′-methyl-4′-oxo-1′,4′,5′,7′-tetrahydro-spiro[cyclopropane-1,6′-pyrrolo[3,2-c]pyridin]-2′-yl]pyridin-2-yl}butanamide] | 4.3 | > 20 | 4.6 | 
2 | Cc1ncc(-c2c(-c3ccnc(NC(=O)C(CC(F)F)c4ccc(F)cc4)c3)[nH]c3c2C(=O)N(C)CC3)s1 (racemic) [Example 129, 4,4-difluoro-2-(4-fluorophenyl)-N-{4-[5-methyl-3-(2-methyl-1,3-thiazol-5-yl)-4-oxo-4,5,6,7-tetrahydro-1H-pyrrolo[3,2-c]pyridin-2-yl]pyridin-2-yl}butanamide] | 13 | > 20 | 15 | 
3 | Cc1c(-c2ccnc(NC(=O)C(C)c3ccc(F)cc3)c2)[nH]c2ccn(C)c(=O)c12 (racemic) [Example 132, N-[4-(3,5-dimethyl-4-oxo-4,5-dihydro-1H-pyrrolo[3,2-c]pyridin-2-yl)pyridin-2-yl]-2-(4-fluorophenyl)propanamide] | 11 | > 20 | 6.3 | 
4 | CC(C(=O)Nc1cc(-c2[nH]c3ccn(C)c(=O)c3c2-c2ccccc2)ccn1)c1ccc(F)cc1 (single isomer, unassigned) [Example 105, 2-(4-fluorophenyl)-N-[4-(5-methyl-4-oxo-3-phenyl-4,5-dihydro-1H-pyrrolo[3,2-c]pyridin-2-yl)pyridin-2-yl]propanamide] | 1.5 | 8.22 | 0.71 | 
5 | CC(C(=O)Nc1cc(-c2[nH]c3ccn(C)c(=O)c3c2-c2cccs2)ccn1)c1ccc(F)cc1 (racemic) [Example 130, 2-(4-fluorophenyl)-N-{4-[5-methyl-4-oxo-3-(2-thienyl)-4,5-dihydro-1H-pyrrolo[3,2-c]pyridin-2-yl]pyridin-2-yl}propanamide] | 3.9 | > 20 | 2.4 | 
6 | CC1(C)Cc2[nH]c(-c3ccnc(NC(=O)Cc4ccc(F)cc4)c3)c(-c3ccccc3F)c2C(=O)N1 [Example 84, 2-(4-fluorophenyl)-N-{4-[3-(2-fluorophenyl)-6,6-dimethyl-4-oxo-4,5,6,7-tetrahydro-1H-pyrrolo[3,2-c]pyridin-2-yl]pyridin-2-yl}acetamide] | 4.8 | > 20 | 3.4 | 16
7 | CC(C(=O)Nc1cc(-c2[nH]c3ccn(C)c(=O)c3c2-c2ccccc2)ccn1)c1ccc(F)cc1 (single isomer, unassigned) [Example 104, 2-(4-fluorophenyl)-N-[4-(5-methyl-4-oxo-3-phenyl-4,5-dihydro-1H-pyrrolo[3,2-c]pyridin-2-yl)pyridin-2-yl]propanamide] | 5.1 | > 20 | 7 | 
8 | CC(C(=O)Nc1cc(-c2[nH]c3ccn(C)c(=O)c3c2-c2ccccc2)ccn1)c1ccc(F)cc1 (racemic) [Example 103, 2-(4-fluorophenyl)-N-[4-(5-methyl-4-oxo-3-phenyl-4,5-dihydro-1H-pyrrolo[3,2-c]pyridin-2-yl)pyridin-2-yl]propanamide] | 11 | > 20 | 5 | 
9 | CN1CCc2[nH]c(-c3ccnc(NC(=O)C(CC(F)F)c4ccc(F)cc4)c3)c(-c3ccc(F)cc3)c2C1=O (racemic) [Example 139, 4,4-difluoro-2-(4-fluorophenyl)-N-{4-[3-(4-fluorophenyl)-5-methyl-4-oxo-4,5,6,7-tetrahydro-1H-pyrrolo[3,2-c]pyridin-2-yl]pyridin-2-yl}butanamide] | 5.5 | > 20 | 4.2 | 
